Tests used:
[1] = system: bFGF-induced corneal angiogenesis; assay: Mouse corneal neovascularization assay (bFGF pellet); format: in vivo; details: for Positive comeas/total: bFGF 50 ng/pellet, day 5 after implantation; for effect on mouse corneal neovascularization in vivo: bFGF pellet, peptides at 10 and 100 μM
Description: Angiogenesis was induced in the mouse cornea by implanting slow release pellets containing bFGF (50 ng/pellet). Peptides at 10 and 100 μM were added where indicated. Angiogenesis was observed on day 5 after implantation and a vigorous ingrowth of the blood vessels reaching the pellet was scored as a positive response. The peptide abbreviations are as above; PBS is phosphate buffer solution.

[2] = system: Microvascular endothelial cells (HMVECs); assay: VEGF-induced endothelial cell chemotaxis/migration assay (Boyden chamber); format: cell-based, human; details: at 100 nM (44-mer: 100 nM or higher)
Description: FIG. 3. In vitro anti-angiogenic activity by […] and 44-mer PEDF peptides. Microvascular endothelial cells (HMVECs) chemotaxis up the gradient of pro-angiogenic VEGF was examined in the presence of the 44-mer or 34-mer. FIG. 3A Recombinant PEDF (rPEDF, BH) (10 nM), 34-mer (1 μM) and 44-mer (1 μM) were tested alone (empty bars), or in the presence of VEGF (hatched bars). Anti-PEDF neutralizing antibodies were added where shown (filled bars). FIG. 3B 34-mer (●) and 44-mer (♦) were tested with VEGF (100 pg/ml) at increasing concentrations. ED50 was determined using regression curves.
Two large peptides from PEDF, a “34-mer” (amino acids 24-57 of SEQ ID NO:1) and a “44-mer” (residues 58-101 of SEQ ID NO:1), were tested for their ability to block angiogenesis. […] (Alberdi et al., 1999) In the anti-angiogenesis assays, only the 34-mer inhibited VEGF-induced angiogenesis in vitro. Anti-angiogenic activity of the 34-mer peptide was blocked with neutralizing antibodies effective against the whole molecule.
HUVEC migration assay are performed as previously described (Good et al., PNAS, 1990). […] Then, the stained membranes are dried, mounted, and the cells migrated to the top part of membrane counted in 10 high-powered (400×) fields. […]

HUVECs = assay: Endothelial cell apoptosis assay (TUNEL, ApopTag); format: cell-based, human; details: for induction of endothelial cell apoptosis: in vitro, low serum (0.2%)
Description: FIG. 5. Endothelial cell apoptosis induced by TGA and ERT-L PEDF peptides. 90% confluent HUVECs were treated with increasing concentrations of TGA (FIG. 5A) or ERT-L (FIG. 5B). Apoptotic cells were detected with ApopTag assay kit (Intergen) and percent of TUNEL positive cells calculated.
Apoptosis by PEDF and by the 34-mer were mediated by the same signaling events including activation of JNK-1. Apoptosis by both PEDF and by its 34-mer fragment were abolished in the presence of JNK-1 specific inhibitor SP600125 (BioMol). […] The 44-mer had no activity.
Cells were plated on gelatinized glass cover slips in 24-well tissue culture plates at 5×10^4 cells/well, treated with indicated compounds in low serum (0.2%), fixed in 1% buffered paraformaldehyde, stained using the ApopTag in situ cell death detection kit according to the manufacturer's instructions (Serologicals corporation) and counterstained with propidium iodide. The percentage of terminal deoxynucleotidyl transferase-mediated dUTP nick end labeling (TUNEL)-positive cells was calculated as the number of TUNEL-positive cells (counted in 2-6 randomly selected fields from two different chambers) divided by the total number of cells. 600-1200 cells were scored for each treatment.
Human umbilical vein endothelial cells (HUVEC, NCI) were grown to 90% confluence and treated with peptides overnight in low (0.2%) serum. Apoptotic cells were detected using TUNEL assay kit (InterGene) and percent apoptotic cells were calculated (FIG. 5).

[3] = system: endothelial cells (HUVEC); assay: Endothelial cell migration up the gradient of pro-angiogenic bFGF; format: cell-based, human
Description: HUVEC migration assay are performed as previously described (Good et al., PNAS, 1990). The cells are starved overnight in MCDB131 medium supplemented with 0.1% bovine serum albumin (BSA, Sigma) and placed at 1.5 10^6 cells/ml in the bottom part of a 48-well modified Boyden chambers (Neuroprob Corp.), separated from the top part by gelatinized micro porous membrane (8 μm pore size, Nucleopor/Whatman). The inverted chambers are incubated for 1.5 h for the cells to attach. The chamber are then re-inverted, test substances added to the top part of the top well and incubated for additional 3h30 to allow migration. The chamber are disassembled, the membranes fixed, the cells visualized using Diff-Quick staining kit (Fisher). Then, the stained membranes are dried, mounted, and the cells migrated to the top part of membrane counted in 10 high-powered (400×) fields. MCDB131 containing 0.1% BSA, is used as a negative control and 10 ng/ml bFGF as a positive control. Each substance is tested in quadruplicate to allow statistical evaluation of the data within a single experiment. Each experiment is repeated 3 times to ensure the reproducibility.
The peptides were tested in vitro for their ability to block endothelial cell migration up the gradient of pro-angiogenic bFGF.

[4] = system: Y-79 retinoblastoma cells; details: previously shown (Alberdi et al., 1999); cited from earlier work

Substance	Positive comeas/total ([1]; peptide 10 μM)	Positive comeas/total ([1]; peptide 100 μM)	inhibition of VEGF-induced endothelial cell chemotaxis [2]	dose at which maximal apoptosis effect is reached (HUVECs; cultured endothelial cells) [nM]	induction of endothelial cell apoptosis (HUVECs)	ability to block endothelial cell migration up the gradient of bFGF [3]	effect on mouse corneal neovascularization in vivo [1]	binding to and differentiation of Y-79 retinoblastoma cells [4]
acetyl-ERTESIIHRAL-amide (Ac-ERTESIIHRAL-NH2) [ERT-S, PEDF residues 78-88]	5/6	4/6	–	–	–	–	–	–
acetyl-SSPDIHGTYKE-amide (Ac-SSPDIHGTYKE-NH2) [PEDF residues 94-104]	6/6	4/4	–	–	–	–	–	–
DPFFKVPVNKLAAAVSNFGYDLYRVRSSMSPTTN [34-mer]	–	–	inhibited	100	–	–	–	–
acetyl-ERTESIIHRALYYDLIS-amide (Ac-ERTESIIHRALYYDLIS-NH2) [ERT-L, PEDF residues 78-94]	2/6	1/5	–	–	induced apoptosis	showed anti-angiogenic activity	blocked mouse corneal neovascularization	–
acetyl-TGALVEEEDPF-amide (Ac-TGALVEEEDPF-NH2) [PEDF residues 16-26]	4/6	2/6	–	–	induced apoptosis	showed anti-angiogenic activity	blocked mouse corneal neovascularization	–
acetyl-LYYDLISSPDIHGTYKE-amide (Ac-LYYDLISSPDIHGTYKE-NH2) [PEDF residues 88-104]	5/6	5/5	–	–	–	–	–	–
44-mer: PEDF peptide, residues 58-101 of SEQ ID NO:1, previously shown to have neurotrophic activity (VLLSPLSVATALSALSLGAEQRTESIIHRALYYDLISSPDIHGT; listed as Homo sapiens) [reference compound]	–	–	no inhibitory activity	–	no activity	–	–	bind to and induce differentiation
